Values after ≈ are worked out from the molar mass of the structure shown. Active and inactive are the calls of the source. The calls are words filed in the database; no cut-off is given here.
How the values were obtained:
Enterococcus faecalis [1] = experiment: Antibacterial activity against vancomycin- resistant Enterococcus faecalis assessed as percent susceptible isolates by CLSI M100-S18 method; type: functional
Enterococcus faecium [2] = experiment: Antibacterial activity against vancomycin- resistant Enterococcus faecium assessed as percent susceptible isolates by CLSI M100-S18 method; type: functional
Enterococcus faecium [3] = experiment: Antibacterial activity against vancomycin- resistant Enterococcus faecium by CLSI M100-S18 method; type: functional
Enterococcus faecalis [4] = experiment: Antibacterial activity against vancomycin- resistant Enterococcus faecalis by CLSI M100-S18 method; type: functional
[5] = tested on: Staphylococcus saprophyticus; experiment: Antibacterial activity against Staphylococcus saprophyticus assessed as percent susceptible isolates by CLSI M100-S18 method; type: functional
Streptococcus mitis = experiment: Antibacterial activity against Streptococcus mitis by CLSI M100-S18 method; type: functional
Streptococcus agalactiae = experiment: Antibacterial activity against Streptococcus agalactiae by CLSI M100-S18 method; type: functional
Staphylococcus hominis [6] = experiment: Antibacterial activity against Staphylococcus hominis assessed as percent susceptible isolates by CLSI M100-S18 method; type: functional
[7] = tested on: Staphylococcus epidermidis; experiment: Antibacterial activity against ciprofloxacin-susceptible and methicillin-resistant Staphylococcus epidermidis assessed as percent susceptible isolates by CLSI M100-S18 method; type: functional
Moraxella catarrhalis [8] = experiment: Antibacterial activity against Moraxella catarrhalis assessed as percent susceptible isolates by CLSI M7-A7 method; type: functional
Morganella morganii [9] = experiment: Antibacterial activity against Morganella morganii by CLSI M7-A7 method; type: functional
Klebsiella oxytoca [10] = experiment: Antibacterial activity against Klebsiella oxytoca assessed as percent susceptible isolates by CLSI M7-A7 method; type: functional
Klebsiella oxytoca [11] = experiment: Antibacterial activity against Klebsiella oxytoca by CLSI M7-A7 method; type: functional
Streptococcus pyogenes = experiment: Antibacterial activity against Streptococcus pyogenes by CLSI M100-S18 method; type: functional
Morganella morganii [12] = experiment: Antibacterial activity against Morganella morganii assessed as percent susceptible isolates by CLSI M7-A7 method; type: functional
[13] = tested on: Streptococcus intermedius; experiment: Antibacterial activity against Streptococcus intermedius by CLSI M100-S18 method; type: functional
Staphylococcus aureus [14] = experiment: Antibacterial activity against non-ciprofloxacin-susceptible and methicillin-susceptible Staphylococcus aureus by CLSI M100-S18 method; type: functional
Streptococcus equinus = experiment: Antibacterial activity against Streptococcus bovis by CLSI M100-S18 method; type: functional
Streptococcus salivarius = experiment: Antibacterial activity against Streptococcus salivarius by CLSI M100-S18 method; type: functional
[15] = tested on: Staphylococcus epidermidis; experiment: Antibacterial activity against ciprofloxacin-susceptible and methicillin-resistant Staphylococcus epidermidis by CLSI M100-S18 method; type: functional
[16] = tested on: Staphylococcus lugdunensis; experiment: Antibacterial activity against Staphylococcus lugdunensis assessed as percent susceptible isolates by CLSI M100-S18 method; type: functional
[17] = tested on: Streptococcus constellatus; experiment: Antibacterial activity against Streptococcus constellatus by CLSI M100-S18 method; type: functional
Staphylococcus aureus [18] = experiment: Antibacterial activity against ciprofloxacin-susceptible and methicillin-resistant Staphylococcus aureus assessed as percent susceptible isolates by CLSI M100-S18 method; type: functional
Staphylococcus warneri [19] = experiment: Antibacterial activity against Staphylococcus warneri assessed as percent susceptible isolates by CLSI M100-S18 method; type: functional
[20] = Antibacterial activity against Lancefield Streptococcus sp. 'group C' by CLSI M100-S18 method; type: functional
Staphylococcus aureus [21] = experiment: Antibacterial activity against non-ciprofloxacin-susceptible and methicillin-susceptible Staphylococcus aureus assessed as percent susceptible isolates by CLSI M100-S18 method; type: functional
Haemophilus influenzae [22] = experiment: Antibacterial activity against non-ciprofloxacin-susceptible Haemophilus influenzae assessed as percent susceptible isolates by CLSI M7-A7 method; type: functional
Streptococcus oralis = experiment: Antibacterial activity against Streptococcus oralis by CLSI M100-S18 method; type: functional
[23] = tested on: Staphylococcus haemolyticus; experiment: Antibacterial activity against Staphylococcus haemolyticus assessed as percent susceptible isolates by CLSI M100-S18 method; type: functional
Streptococcus pneumoniae [24] = experiment: Antibacterial activity against levofloxacin-susceptible Streptococcus pneumoniae by CLSI M100-S18 method; type: functional
Streptococcus sanguinis = experiment: Antibacterial activity against Streptococcus sanguinis by CLSI M100-S18 method; type: functional
Citrobacter koseri [25] = experiment: Antibacterial activity against Citrobacter koseri by CLSI M7-A7 method; type: functional
Streptococcus anginosus = experiment: Antibacterial activity against Streptococcus anginosus by CLSI M100-S18 method; type: functional
[26] = tested on: Staphylococcus epidermidis
Listeria monocytogenes = experiment: Antibacterial activity against Listeria monocytogenes by CLSI M100-S18 method; type: functional
[27] = tested on: Staphylococcus haemolyticus; experiment: Antibacterial activity against Staphylococcus haemolyticus by CLSI M100-S18 method; type: functional
Streptococcus pneumoniae [28] = experiment: Antibacterial activity against non-levofloxacin susceptible Streptococcus pneumoniae assessed as percent susceptible isolates by CLSI M100-S18 method; type: functional
Streptococcus pneumoniae [29] = experiment: Antibacterial activity against non-levofloxacin susceptible Streptococcus pneumoniae by CLSI M100-S18 method; type: functional
Citrobacter koseri [30] = experiment: Antibacterial activity against Citrobacter koseri assessed as percent susceptible isolates by CLSI M7-A7 method; type: functional
[31] = Antibacterial activity against Lancefield Streptococcus sp. 'group G' by CLSI M100-S18 method; type: functional
[32] = tested on: Staphylococcus epidermidis; experiment: Antibacterial activity against non-ciprofloxacin-susceptible and methicillin-susceptible Staphylococcus epidermidis assessed as percent susceptible isolates by CLSI M100-S18 method; type: functional
[33] = tested on: Staphylococcus saprophyticus; experiment: Antibacterial activity against Staphylococcus saprophyticus by CLSI M100-S18 method; type: functional
[34] = tested on: Staphylococcus epidermidis; remark: listed apart in the source
Haemophilus influenzae [35] = experiment: Antibacterial activity against ciprofloxacin-susceptible Haemophilus influenzae assessed as percent susceptible isolates by CLSI M7-A7 method; type: functional
Neisseria meningitidis [36] = experiment: Antibacterial activity against Neisseria meningitidis assessed as percent susceptible isolates by CLSI M7-A7 method; type: functional
Moraxella catarrhalis [37] = experiment: Antibacterial activity against Moraxella catarrhalis by CLSI M7-A7 method; type: functional
Haemophilus influenzae [38] = experiment: Antibacterial activity against ciprofloxacin-susceptible Haemophilus influenzae by CLSI M7-A7 method; type: functional
Streptococcus sp. = experiment: Antibacterial activity against Lancefield Streptococcus sp. group F by CLSI M100-S18 method; type: functional
Legionella pneumophila = experiment: Antibacterial activity against Legionella pneumophila by CLSI M7-A7 method; type: functional
Haemophilus influenzae [39] = experiment: Antibacterial activity against non-ciprofloxacin-susceptible Haemophilus influenzae by CLSI M7-A7 method; type: functional
[40] = tested on: Staphylococcus epidermidis; experiment: Antibacterial activity against non-ciprofloxacin-susceptible and methicillin-susceptible Staphylococcus epidermidis by CLSI M100-S18 method; type: functional
Streptococcus pneumoniae [41] = experiment: Antibacterial activity against levofloxacin susceptible Streptococcus pneumoniae assessed as percent susceptible isolates by CLSI M100-S18 method; type: functional
Staphylococcus warneri [42] = experiment: Antibacterial activity against Staphylococcus warneri by CLSI M100-S18 method; type: functional
Staphylococcus aureus [43] = experiment: Antibacterial activity against ciprofloxacin-susceptible and methicillin-resistant Staphylococcus aureus by CLSI M100-S18 method; type: functional
Neisseria meningitidis [44] = experiment: Antibacterial activity against Neisseria meningitidis by CLSI M7-A7 method; type: functional
Staphylococcus hominis [45] = experiment: Antibacterial activity against Staphylococcus hominis by CLSI M100-S18 method; type: functional
[46] = tested on: Staphylococcus lugdunensis; experiment: Antibacterial activity against Staphylococcus lugdunensis by CLSI M100-S18 method; type: functional

## CN[C@H](CC(C)C)C(=O)N[C@H]1C(=O)N[C@@H](CC(N)=O)C(=O)N[C@H]2C(=O)N[C@H]3C(=O)N[C@H](C(=O)N[C@H](C(=O)O)c4cc(O)cc(O)c4-c4cc3ccc4O)[C@H](O)c3ccc(c(Cl)c3)Oc3cc2cc(c3O[C@@H]2O[C@H](CO)[C@@H](O)[C@H](O)[C@H]2O[C@H]2C[C@](C)(N)[C@H](O)[C@H](C)O2)Oc2ccc(cc2Cl)[C@H]1O [VANCOMYCIN]
Enterococcus faecalis [1]
  Activity: 80%
Enterococcus faecium [2]
  Activity: 87.3%
Enterococcus faecium [3]
  MIC: ≤ 0.5 µg/mL
  MIC50: ≤ 0.5 µg/mL
  MIC90: > 32 µg/mL
Enterococcus faecalis [4]
  MIC50: 1 µg/mL (≈ 0.69 µM)
  MIC90: > 32 µg/mL

## CC[C@H]1OC(=O)[C@H](C)[C@@H](O[C@H]2C[C@@](C)(OC)[C@@H](O)[C@H](C)O2)[C@H](C)[C@@H](O[C@@H]2O[C@H](C)C[C@H](N(C)C)[C@H]2O)[C@](C)(O)C[C@@H](C)CN(C)[C@H](C)[C@@H](O)[C@]1(C)O [AZITHROMYCIN]
[5]
  Activity: 100%
Streptococcus mitis
  MIC50: 1 µg/mL (≈ 1.34 µM)
  MIC90: 1 µg/mL (≈ 1.34 µM)
Streptococcus agalactiae
  MIC50: 0.5 µg/mL (≈ 0.668 µM)
  MIC90: 0.5 µg/mL (≈ 0.668 µM)
Staphylococcus hominis [6]
  Activity: 30%
[7]
  Activity: 100%
Moraxella catarrhalis [8]
  Activity: 100%
Morganella morganii [9]
  MIC50: > 8 µg/mL
  MIC90: > 8 µg/mL
Klebsiella oxytoca [10]
  Activity: 90%
Klebsiella oxytoca [11]
  MIC50: > 8 µg/mL
  MIC90: > 8 µg/mL
Streptococcus pyogenes
  MIC50: 0.06 µg/mL (≈ 0.0801 µM)
  MIC90: 8 µg/mL (≈ 10.7 µM)
Morganella morganii [12]
  Activity: 76.5%
[13]
  MIC50: 1 µg/mL (≈ 1.34 µM)
  MIC90: 1 µg/mL (≈ 1.34 µM)
Staphylococcus aureus [14]
  MIC50: > 8 µg/mL
  MIC90: > 8 µg/mL
Streptococcus equinus
  MIC50: 1 µg/mL (≈ 1.34 µM)
  MIC90: 1 µg/mL (≈ 1.34 µM)
Streptococcus salivarius
  MIC50: 1 µg/mL (≈ 1.34 µM)
  MIC90: 1 µg/mL (≈ 1.34 µM)
[15]
  MIC: 0.25 µg/mL (≈ 0.334 µM)
[16]
  Activity: 66.7%
[17]
  MIC50: 1 µg/mL (≈ 1.34 µM)
  MIC90: 1 µg/mL (≈ 1.34 µM)
Staphylococcus aureus [18]
  Activity: 94.7%
Staphylococcus warneri [19]
  Activity: 76%
[20]
  MIC50: 0.5 µg/mL (≈ 0.668 µM)
  MIC90: 0.5 µg/mL (≈ 0.668 µM)
Staphylococcus aureus [21]
  Activity: 18.2%
Haemophilus influenzae [22]
  Activity: 81.8%
Streptococcus oralis
  MIC50: 1 µg/mL (≈ 1.34 µM)
  MIC90: 1 µg/mL (≈ 1.34 µM)
[23]
  Activity: 39.6%
Streptococcus pneumoniae [24]
  MIC50: 0.06 µg/mL (≈ 0.0801 µM)
  MIC90: > 64 µg/mL
Streptococcus sanguinis
  MIC50: 1 µg/mL (≈ 1.34 µM)
  MIC90: 1 µg/mL (≈ 1.34 µM)
Citrobacter koseri [25]
  MIC50: 8 µg/mL (≈ 10.7 µM)
  MIC90: > 8 µg/mL
Streptococcus anginosus
  MIC50: 0.06 µg/mL (≈ 0.0801 µM)
  MIC90: > 8 µg/mL
[26]
  MIC90: inactive
Listeria monocytogenes
  MIC50: 0.5 µg/mL (≈ 0.668 µM)
  MIC90: 1 µg/mL (≈ 1.34 µM)
[27]
  MIC50: > 8 µg/mL
  MIC90: > 8 µg/mL
Streptococcus pneumoniae [28]
  Activity: 36.5%
Streptococcus pneumoniae [29]
  MIC50: 4 µg/mL (≈ 5.34 µM)
  MIC90: > 64 µg/mL
Enterococcus faecium [3]
  MIC50: > 128 µg/mL
  MIC90: > 128 µg/mL
Citrobacter koseri [30]
  Activity: 99%
[31]
  MIC50: 0.5 µg/mL (≈ 0.668 µM)
  MIC90: 0.5 µg/mL (≈ 0.668 µM)
[32]
  Activity: 0%
[33]
  MIC50: 1 µg/mL (≈ 1.34 µM)
  MIC90: > 8 µg/mL
[34]
  MIC90: inactive
Enterococcus faecalis [4]
  MIC50: > 128 µg/mL
  MIC90: > 128 µg/mL
Haemophilus influenzae [35]
  Activity: 100%
Neisseria meningitidis [36]
  Activity: 100%
Moraxella catarrhalis [37]
  MIC: 0.015 µg/mL (≈ 0.02 µM)
  MIC50: 0.015 µg/mL (≈ 0.02 µM)
  MIC90: 0.03 µg/mL (≈ 0.0401 µM)
Haemophilus influenzae [38]
  MIC50: 2 µg/mL (≈ 2.67 µM)
  MIC90: 2 µg/mL (≈ 2.67 µM)
Streptococcus sp.
  MIC50: 0.5 µg/mL (≈ 0.668 µM)
  MIC90: 0.5 µg/mL (≈ 0.668 µM)
Legionella pneumophila
  MIC50: 0.03 µg/mL (≈ 0.0401 µM)
  MIC90: 0.03 µg/mL (≈ 0.0401 µM)
Haemophilus influenzae [39]
  MIC50: 1 µg/mL (≈ 1.34 µM)
  MIC90: 8 µg/mL (≈ 10.7 µM)
[40]
  MIC50: > 8 µg/mL
Streptococcus pneumoniae [41]
  Activity: 62.5%
Staphylococcus warneri [42]
  MIC50: > 8 µg/mL
  MIC90: > 8 µg/mL
Staphylococcus aureus [43]
  MIC50: 1 µg/mL (≈ 1.34 µM)
Neisseria meningitidis [44]
  MIC50: 0.06 µg/mL (≈ 0.0801 µM)
  MIC90: 0.06 µg/mL (≈ 0.0801 µM)
Staphylococcus hominis [45]
  MIC50: > 8 µg/mL
  MIC90: > 8 µg/mL
[46]
  MIC50: > 8 µg/mL
  MIC90: > 8 µg/mL

Reference: ChEMBL document CHEMBL1649565, “Besifloxacin, a novel fluoroquinolone, has broad-spectrum in vitro activity against aerobic and anaerobic bacteria” (Antimicrob Agents Chemother, 2009)
